These results are taken from ChEMBL document CHEMBL1201862, “PubChem BioAssay data set” (2004).

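Tested at 5 concentrations; 48 h exposure; 96-well plates; endpoints linearly interpolated, else capped at highest concentration. Here, GI50 denotes the concentration required for 50% inhibition of growth.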 Active and inactive are the calls of the source. No stated cut-off is given here; in the data, active = GI50 up to about 1.1 µM and inactive = higher. A value given as a limit tells only on which side of the number the result lay.

Some test systems named below: CCRF-CEM; HCT-116; HCT-15; HL-60; HOP-62; HOP-92; IGROV-1; KM12; MOLT-4; NCI-H23; OVCAR-3; OVCAR-4; RPMI-8226; RXF 393; SF-539; SK-OV-3; SN12C; U-251; UO-31; SK-MEL-5.
Common to all, as to test: NCI-60 cell line screen, 48 h

For the molecule `CC(=O)OCC1OC(OCCCCCCO)C(OC(C)=O)C(OC(C)=O)C1OC(C)=O` (stereo unspecified), the GI50 in the experiment with CCRF-CEM was > 100 µM (inactive); in the experiment on HCT-116, > 100 µM (inactive); in the experiment on HCT-15, over 100 µM; in the experiment on HL-60, > 100 µM (inactive); in the experiment on HOP-62, > 100 µM (inactive); in the experiment with HOP-92 it was > 100 µM (inactive). Moreover, the GI50 in the experiment on IGROV-1, in the experiment with KM12, in the experiment on MOLT-4, in the experiment with NCI-H23, in the experiment with OVCAR-3 and in the experiment with OVCAR-4 was > 100 µM (inactive) each time. For the same molecule, the GI50 in the experiment on RPMI-8226, in the experiment on RXF 393, in the experiment on SF-539, in the experiment on SK-OV-3, in the experiment with SN12C and with U-251 was > 100 µM (inactive) throughout. In addition, the GI50 with UO-31 was > 100 µM (inactive).

As for `O=C1C(Cl)N(c2cccc(Cl)c2)C1c1c[nH]c2ccccc12` (stereo unspecified), the GI50 with CCRF-CEM, in the experiment with HCT-116, with HL-60, in the experiment on HOP-62, in the experiment on HOP-92 and with IGROV-1 was > 100 µM (inactive) each time. The GI50 with KM12, with MOLT-4, in the experiment with NCI-H23, in the experiment on OVCAR-3, with OVCAR-4 and with RPMI-8226 was > 100 µM (inactive) in each case. Besides, the GI50 with RXF 393, with SF-539, with SK-MEL-5, in the experiment on SK-OV-3, in the experiment on SN12C and with U-251 was > 100 µM (inactive) throughout. For the same molecule, the GI50 in the experiment with UO-31 is > 100 µM (inactive).

`CC1(c2ccccc2)N=c2[nH]cnc2=C(C(N)=O)N1` (stereo unspecified): the GI50 in the experiment with CCRF-CEM is > 100 µM (inactive); in the experiment on HCT-116, > 100 µM (inactive); with HCT-15, over 100 µM; in the experiment on HL-60, > 100 µM (inactive); with HOP-62, > 100 µM (inactive); with HOP-92 it was > 100 µM (inactive). The GI50 in the experiment with IGROV-1, with KM12, in the experiment with NCI-H23, with OVCAR-3, with OVCAR-4 and in the experiment with RPMI-8226 was > 100 µM (inactive) each time. Moreover, the GI50 with RXF 393, with SF-539, in the experiment on SK-MEL-5, in the experiment on SK-OV-3, in the experiment with SN12C and in the experiment on U-251 was > 100 µM (inactive) in each case.

With `N#CC1(C#N)C(=O)c2ccncc2C1=O`, the GI50 in the experiment on CCRF-CEM was > 100 µM (inactive); in the experiment with HCT-116, > 100 µM (inactive); in the experiment with HCT-15 it was over 100 µM; in the experiment on HL-60 it was > 100 µM (inactive); with HOP-92 it was > 100 µM (inactive); with IGROV-1, > 100 µM (inactive). In addition, the GI50 in the experiment with KM12, with NCI-H23, in the experiment with OVCAR-3, in the experiment on OVCAR-4, in the experiment with RPMI-8226 and with RXF 393 was > 100 µM (inactive) in each case. In addition, the GI50 in the experiment with SF-539, in the experiment with SK-MEL-5, in the experiment on SK-OV-3, with SN12C, with U-251 and in the experiment with UO-31 was > 100 µM (inactive) in each case.

Consider `CN1NC(c2ccccc2)=C(C#N)C(=O)CC1c1ccc(Br)cc1` (stereo unspecified), for which the GI50 was 36.8 µM (inactive) with HCT-116; 24.3 µM in the experiment with HCT-15; 29 µM (inactive) in the experiment with HL-60; 21.4 µM (inactive) in the experiment on HOP-62; 35.2 µM (inactive) with HOP-92; 25.2 µM (inactive) in the experiment on KM12. Further, the GI50 in the experiment on NCI-H23 is 56.4 µM (inactive); with OVCAR-4, 45.6 µM (inactive); with RPMI-8226, 37.8 µM (inactive); with RXF 393, 36.6 µM (inactive); in the experiment on SK-MEL-5, 14.2 µM (inactive); in the experiment on SK-OV-3, 31.8 µM (inactive). Also, the GI50 is 44.9 µM (inactive) in the experiment on SN12C and > 10 µM (inactive) in the experiment on U-251.

Consider `COc1cc(/C=C/C(=O)C(C)(C)C)cc(OC)c1OC`, for which the GI50 in the experiment on CCRF-CEM was 33.2 µM (inactive); in the experiment on HCT-116, 29.9 µM (inactive); in the experiment with HCT-15, 61.8 µM; with HL-60, 21.1 µM (inactive); in the experiment with HOP-62, > 100 µM (inactive); in the experiment with HOP-92, 41.1 µM (inactive). Also, the GI50 was 24.8 µM (inactive) with KM12; 32.8 µM (inactive) with MOLT-4; 29.9 µM (inactive) with NCI-H23; 37.2 µM (inactive) in the experiment with OVCAR-3; 14.8 µM (inactive) in the experiment on OVCAR-4; 34.3 µM (inactive) with RPMI-8226. The GI50 with RXF 393 was 28.4 µM (inactive); with SF-539, 33.3 µM (inactive); in the experiment on SK-MEL-5 it was 42.3 µM (inactive); with SK-OV-3, 29.8 µM (inactive); in the experiment with SN12C it was 34.3 µM (inactive); in the experiment with U-251 it was 37.8 µM (inactive). Further, the GI50 in the experiment with UO-31 was > 100 µM (inactive).

For `C=C(C)[C@@H]1CCC2=C[C@H](CC(C)=CC3=CC(C)=C(O3)[C@@H]1OC)OC2=O`, the GI50 with CCRF-CEM was > 100 µM (inactive); in the experiment with HCT-15 it was over 100 µM; in the experiment on HL-60, > 100 µM (inactive); in the experiment with HOP-92, 33.3 µM (inactive); with IGROV-1 it was > 100 µM (inactive); in the experiment with KM12, > 100 µM (inactive). The GI50 in the experiment with MOLT-4 was > 100 µM (inactive); in the experiment with OVCAR-3 it was > 100 µM (inactive); in the experiment on OVCAR-4, > 100 µM (inactive); with RPMI-8226, > 100 µM (inactive); with RXF 393, 23.8 µM (inactive); with SF-539, 77.3 µM (inactive). Also, the GI50 with SK-MEL-5 was > 100 µM (inactive); with SN12C it was > 100 µM (inactive); in the experiment on U-251 it was 33.1 µM (inactive); with UO-31 it was > 100 µM (inactive).

As to `CN(C)C(=O)C1CCN(Cc2c[nH]c3ccccc23)CC1`, the GI50 in the experiment with HCT-116 was > 100 µM (inactive); in the experiment on HCT-15 it was over 100 µM; in the experiment on HL-60, > 100 µM (inactive); in the experiment on HOP-62 it was > 100 µM (inactive); in the experiment on HOP-92 it was > 100 µM (inactive); in the experiment on IGROV-1, > 100 µM (inactive). Moreover, the GI50 in the experiment on KM12, in the experiment with MOLT-4, with NCI-H23, in the experiment on OVCAR-3, with OVCAR-4 and in the experiment on RPMI-8226 was > 100 µM (inactive) each time. Moreover, the GI50 in the experiment with RXF 393, in the experiment on SK-MEL-5, in the experiment on SK-OV-3, in the experiment with SN12C, in the experiment with U-251 and in the experiment with UO-31 was > 100 µM (inactive) each time.

In the case of `O=[N+]([O-])c1ccc(C2Nn3c(nnc3-c3cccc([N+](=O)[O-])c3)S2)cc1` (stereo unspecified), the GI50 is 36.8 µM (inactive) with CCRF-CEM; 67.6 µM (inactive) with HCT-116; over 100 µM with HCT-15; 89.3 µM (inactive) in the experiment with HL-60; > 100 µM (inactive) with HOP-62; > 100 µM (inactive) in the experiment with HOP-92. Besides, the GI50 was > 100 µM (inactive) in the experiment with IGROV-1; > 100 µM (inactive) in the experiment with KM12; 37.8 µM (inactive) in the experiment on MOLT-4; > 100 µM (inactive) in the experiment with NCI-H23; > 100 µM (inactive) in the experiment on OVCAR-3; > 100 µM (inactive) in the experiment on OVCAR-4. The GI50 was 42.7 µM (inactive) in the experiment on RPMI-8226; > 100 µM (inactive) with RXF 393; 9.08 µM (inactive) in the experiment on SF-539; 53.6 µM (inactive) in the experiment with SK-MEL-5; > 100 µM (inactive) with SK-OV-3; > 100 µM (inactive) in the experiment with SN12C. The GI50 in the experiment with U-251 and in the experiment with UO-31 was > 100 µM (inactive) throughout.

Take `O=C(O)Cc1cccc2c1Oc1ccccc1S2`: the GI50 in the experiment with CCRF-CEM was > 100 µM (inactive); in the experiment on HCT-116 it was > 100 µM (inactive); with HCT-15, over 100 µM; in the experiment on HL-60, > 100 µM (inactive); in the experiment with HOP-62, > 100 µM (inactive); with HOP-92 it was > 100 µM (inactive). For the same molecule, the GI50 with IGROV-1, in the experiment on KM12, with MOLT-4, with NCI-H23, with OVCAR-3 and in the experiment with OVCAR-4 was > 100 µM (inactive) each time. Besides, the GI50 in the experiment on RPMI-8226, in the experiment on RXF 393, in the experiment with SF-539, with SK-MEL-5, with SK-OV-3 and with SN12C was > 100 µM (inactive) each time. The GI50 in the experiment on U-251 and with UO-31 was > 100 µM (inactive) throughout.

In the case of `CC(=O)O[C@@]12CO[C@@H]1CC(O)[C@@]1(C)C(=O)[C@H](O)C3=C(C)C(O)C[C@@](O)(C(OC(=O)c4ccccc4)C12)C3(C)C` (stereo partly specified), the GI50 is 0.454 µM (active) in the experiment with CCRF-CEM; 0.371 µM (active) with HCT-116; 24.7 µM in the experiment with HCT-15; 0.41 µM (active) in the experiment on HL-60; 6.05 µM (inactive) with HOP-62; 22.6 µM (inactive) in the experiment on HOP-92. Moreover, the GI50 in the experiment on IGROV-1 was 1.88 µM (inactive); in the experiment with KM12, 0.558 µM (active); in the experiment on MOLT-4, 0.759 µM (active); in the experiment with NCI-H23, 0.869 µM (active); in the experiment on OVCAR-3 it was 0.454 µM (active); in the experiment on OVCAR-4 it was > 90.8 µM (inactive). Further, the GI50 in the experiment with RPMI-8226 was 0.519 µM (active); in the experiment on RXF 393, 25 µM (inactive); with SF-539, 0.415 µM (active); in the experiment with SK-MEL-5, 6.58 µM (inactive); in the experiment on SK-OV-3, 0.767 µM (active); with SN12C it was 2.18 µM (inactive). In addition, the GI50 is 0.828 µM (active) with U-251 and 46.1 µM (inactive) with UO-31.
